Test results: US11957684B2, “Treatment of heavy menstrual bleeding associated with uterine fibroids” (Sumitomo Pharma Switzerland GmbH, priority 2016, dated 2024)

Assays:
clinical = details: female, human, in vivo
Description: (§1) The study was a phase 1, double-blind, randomized, placebo-controlled, sequential-panel, ascending single- and multiple-dose study in healthy premenopausal women. Ten groups, each of 12 healthy premenopausal, adult women, participated in the study (Cohorts 1 to 10).
Cohorts 1 to 6 were referred to as the single-rising dose (SRD) portion of the study, where cohorts were dosed in an escalating fashion. All subjects in a given cohort received their dose of study medication on the same day with the exception of subjects in Cohort 1, which were split into 2 subcohorts (Cohorts 1a and 1b). Dosing between these 2 subcohorts was separated by a minimum of 2 days. Dosing between subsequent cohorts was separated by a minimum of 7 days. The decision to proceed to Cohort 1b was made by the investigator after a minimum 48-hour evaluation of subjects in Cohort 1a. The decision to escalate the dose for the remaining cohorts in the SRD portion was based on review of the safety and pharmacokinetic data for all subjects in the previous cohort.
Subjects were required to fast overnight (minimum 10 hours) prior to dosing and continued to fast for 4 hours following dosing. Subjects were given a menu for the dosing period to include 2 meals and an evening snack, each containing approximately 25% fat content. Six ascending dose groups were planned: 1.0 mg (Cohort 1), 5.0 mg (Cohort 2), 10 mg (Cohort 3), 20 mg (Cohort 4), 40 mg (Cohort 5), and 80 mg (Cohort 6). Subjects in each of Cohorts 1a, 1b, 2, 3, 4, 5 and 6 received drug dosing on a single day only.
Cohorts 1 to 7 were each composed of 12 healthy premenopausal women aged 18 to 49 years, inclusive. […] In one sequence, dosing was under fasting conditions (minimum 10 hours). In the other sequence, dosing was approximately 30 minutes after the start of a high-fat, high calorie breakfast (provided approximately 1000 calories, with 50% of the calories from fat).
Cohorts 8 to 10 were each composed of 12 healthy premenopausal women aged 18 to 45 years, inclusive. Cohorts 8 to 10 were referred to as the multiple-rising dose (MRD) portion of the study, where cohorts were dosed in escalating fashion. The MRD portion was not started until all the blinded safety and pharmacokinetic data from the SRD cohorts had been assessed by the investigator and the sponsor. […] Subjects received the first dose of study medication (Day 1) within 2 to 7 days following the onset of their menstrual cycle. Three ascending dose groups were planned: 10 mg once-daily (QD) (Cohort 8), 20 mg QD (Cohort 9), and 40 mg QD (Cohort 10). Subjects in each of Cohorts 8 to 10 received drug dosing on 14 days (Days 1 to 14).
Subjects had to drink all of the water provided with the dose of study drug. Subjects were able to consume water ad libitum with the exception of 1 hour prior to and 1 hour after drug administration, not including the 240 mL of water taken with dosing.
To assess the food effect, an analysis of variance was performed using Cohort 7 log(mean Cmax), log(area under the plasma drug concentration-time curves [mean plasam AUCs]) as dependent variable; treatment, sequence, period as fixed effects; and subject (seq) as a random effect.

[1] = tested on: healthy premenopausal women; experiment: Example 4: safety and tolerability; format: in vivo, human; details: single doses up to 80 mg, up to 40 mg QD for 14 days
From the text: as §1
Serum chemistry, hematology, urinalysis, vital signs, and ECGs were monitored during the study up to 1 week after the last dose. There were no meaningful changes in these parameters in the Compound 1 dose groups compared with placebo. QT and corrected QT interval (QTc) intervals >450 msec and […] were seen across all dose groups, including the placebo group.

[2] = tested on: women with uterine fibroids; details: in vivo
Description: The primary endpoint was the proportion of patients with a total Pictorial Blood Loss Assessment Chart (PBAC) score 4 of <10 from Week 6 to 12. Secondary endpoints included amenorrhea (PBAC score of 0), myoma and uterine volumes, hemoglobin (Hb), Numerical Rating Scale (NRS) score, Uterine Fibroid Symptom and Quality of Life (UFS-QOL) scores. Serum levels of luteinizing hormone (LH), follicle-stimulating hormone (FSH), estradiol (E2) and progesterone (P) were evaluated as pharmacodynamics endpoints. Safety endpoints included adverse events (AEs), vital signs, weight, 12-lead electrocardiogram (ECG), clinical laboratory tests, bone mineral density (BMD) and recovery of menstruation.
The bone mineral density (BMD) of the second to fourth lumbar vertebra (L2 to L4) was measured using dual X-ray absorptiometry (DXA).

FIG. 11 = experiment: FIG. 11
From the text: Table printed on a drawing sheet, FIG. 11
The patent's description of the figure: FIG. 11 is a table of plasma and urine PK parameters for Cohorts 8 to 10 on Days 1 and 14 of the treatment period in accordance with Example 4.
First reader's note: Each column is one dose cohort on one treatment day; the Min and Max rows give the range of the median Tmax, and 'nc' is not explained on the sheet.

In the case of `CONC(=O)Nc1ccc(-c2sc3c(c2CN(C)C)c(=O)n(-c2ccc(OC)nn2)c(=O)n3Cc2c(F)cccc2F)cc1` [Compound 1, N-(4-(1-(2,6-difluorobenzyl)-5-((dimethylamino)methyl)-3-(6-methoxy-3-pyridazinyl)-2,4-dioxo-1,2,3,4-tetrahydrothieno[2,3-d]pyrimidin-6-yl)phenyl)-N′-methoxyurea], the CL renal (clinical) is reported as 95 to 138 mL/min, the “Tmax, all subjects” value (clinical) is reported as no more than 2 h and the half-life (clinical) is reported as 14 to 16 h. The “mean Fe (fraction of dose excreted in urine)” value (clinical) was “less than 3%”, the “median Tmax” value (clinical) was 1 to 1.48 h and the half-life (clinical; 1 mg) was roughly 6 h. For the same compound, the Tmax (clinical; 80 mg, median Tmax) was 4 h, the safety and tolerability [1] was “safe and well tolerated” and the “menstruation recovery period after the last dose” value [2] was 20 to 35 days. For the same compound, the “Tmax (hr) | Median” value (FIG. 11) was 1.00 h.
